According to ChEMBL document CHEMBL6134779, “Design of Proteolytic-Resistant Antifungal Peptides by Utilizing Minimum d-Amino Acid Ratios” (J Med Chem, 2024):
≈ marks a conversion by molar mass, not a printed value.

Tests used:
Candida albicans [1] = assay: Antifungal activity against Candida albicans CGMCC 2.2086 assessed as inhibition of fungal growth incubated for 48 hrs; format: functional
Candida albicans [2] = assay: Antifungal activity against Candida albicans 14936 assessed as inhibition of fungal growth incubated for 48 hrs; format: functional
Candida albicans [3] = assay: Antifungal activity against Candida albicans SP3903 assessed as inhibition of fungal growth incubated for 48 hrs; format: functional
Candida albicans [4] = assay: Antifungal activity against Candida albicans SP3902 assessed as inhibition of fungal growth incubated for 48 hrs; format: functional
Candida albicans [5] = assay: Antifungal activity against Candida albicans 17546 assessed as inhibition of fungal growth incubated for 48 hrs; format: functional
Candida tropicalis = assay: Antifungal activity against Candida tropicalis CGMCC 2.1975 assessed as inhibition of fungal growth incubated for 48 hrs; format: functional
Candida parapsilosis = assay: Antifungal activity against Candida parapsilosis CGMCC 2.3989 assessed as inhibition of fungal growth incubated for 48 hrs; format: functional; conditions: Lodderomyces parapsilosis
Candida albicans [6] = assay: Antifungal activity against Candida albicans SP3931 assessed as inhibition of fungal growth incubated for 48 hrs; format: functional
Candida albicans [7] = assay: Antifungal activity against Candida albicans SP3876 assessed as inhibition of fungal growth incubated for 48 hrs; format: functional
Candida albicans [8] = assay: Antifungal activity against Fluconazole-resistant Candida albicans 56214 assessed as inhibition of fungal growth incubated for 48 hrs; format: functional
Candida albicans [9] = assay: Antifungal activity against Fluconazole-resistant Candida albicans 58288 assessed as inhibition of fungal growth incubated for 48 hrs; format: functional
Candida albicans [10] = assay: Antifungal activity against Candida albicans 56452 assessed as inhibition of fungal growth incubated for 48 hrs; format: functional
[11] = Stability of the compound in CaCl2 assessed as change in secondary structure by CD spectra analysis; format: physicochemical
Candida albicans [12] = assay: Antifungal activity against Candida albicans CGMCC 2.2086 assessed as inhibition of fungal growth incubated for 48 hrs in presence of CaCl2; format: functional
[13] = Hemolytic activity in human red blood cells assessed as hemolysis rate at 512 uM incubated for 1 hr relative to control; format: toxicity, cell-based, Erythrocyte; conditions: read-out: Activity
Candida albicans [14] = assay: Antifungal activity against Candida albicans CGMCC 2.2086 assessed as inhibition of fungal growth incubated for 48 hrs in presence of NH4Cl; format: functional
[15] = Stability of the compound in NaCl assessed as change in secondary structure by CD spectra analysis; format: physicochemical
Candida albicans [16] = assay: Antifungal activity against Candida albicans CGMCC 2.2086 assessed as inhibition of fungal growth incubated for 48 hrs in presence of MgCl2; format: functional
[17] = Stability of the compound in FeCl3 assessed as change in secondary structure by CD spectra analysis; format: physicochemical
Candida albicans [18] = assay: Antifungal activity against Candida albicans CGMCC 2.2086 assessed as inhibition of fungal growth incubated for 48 hrs in presence of NaCl; format: functional
[19] = Stability of the compound in MgCl2 assessed as change in secondary structure by CD spectra analysis; format: physicochemical
Candida albicans [20] = assay: Antifungal activity against Candida albicans CGMCC 2.2086 assessed as inhibition of fungal growth incubated for 48 hrs in presence of FeCl3; format: functional
[21] = Stability of the compound in KCl assessed as change in secondary structure by CD spectra analysis; format: physicochemical
[22] = Hemolytic activity in human red blood cells assessed as hemolysis incubated for 1 hr; format: toxicity, cell-based, Erythrocyte
Candida albicans [23] = assay: Antifungal activity against Candida albicans CGMCC 2.2086 assessed as inhibition of fungal growth incubated for 48 hrs in presence of ZnCl2; format: functional
[24] = Stability of the compound in ZnCl2 assessed as change in secondary structure by CD spectra analysis; format: physicochemical
[25] = Stability of the compound in NH4Cl assessed as change in secondary structure by CD spectra analysis; format: physicochemical
Candida albicans [26] = assay: Antifungal activity against Candida albicans CGMCC 2.2086 assessed as inhibition of fungal growth incubated for 48 hrs in presence of KCl; format: functional
HEK293 = assay: Cytotoxicity against HEK293 cells assessed as reduction in cell viability at 128 uM incubated for 4 hrs by MTT assay; format: toxicity, cell-based; conditions: human, hek293, 4 h
[27] = Cytotoxicity against porcine IPEC-J2 cells assessed as reduction in cell viability at 128 uM incubated for 4 hrs by MTT assay; format: toxicity, cell-based, Sus scrofa; conditions: pig, ipec-j2, 4 h

Compound	MIC95 (Candida albicans [1]) [µM]	MIC95 (Candida albicans [2]) [µM]	MIC95 (Candida albicans [3]) [µM]	MIC95 (Candida albicans [4]) [µM]	MIC95 (Candida albicans [5]) [µM]	MIC95 (Candida tropicalis) [µM]	MIC95 (Candida parapsilosis) [µM]	MIC95 (Candida albicans [6]) [µM]	MIC95 (Candida albicans [7]) [µM]	MIC95 (Candida albicans [8]) [µM]	MIC95 (Candida albicans [9]) [µM]	MIC95 (Candida albicans [10]) [µM]	Stability [11]	MIC95 (Candida albicans [12]) [µM]	hemolysis at 1 h, 512 µM [13] [%]	MIC95 (Candida albicans [14]) [µM]	Stability [15]	MIC95 (Candida albicans [16]) [µM]	Stability [17]	MIC95 (Candida albicans [18]) [µM]	other results
CC(=O)N1CCN(c2ccc(OCC3COC(Cn4ccnc4)(c4ccc(Cl)cc4Cl)O3)cc2)CC1 (stereo not given) [KETOCONAZOLE]	2 (≈ 1.06 µg/mL)	4 (≈ 2.13 µg/mL)	4 (≈ 2.13 µg/mL)	2 (≈ 1.06 µg/mL)	2 (≈ 1.06 µg/mL)	2 (≈ 1.06 µg/mL)	4 (≈ 2.13 µg/mL)	4 (≈ 2.13 µg/mL)	16 (≈ 8.5 µg/mL)	> 64	> 64	1 (≈ 0.531 µg/mL)	–	–	–	–	–	–	–	–	–
CC[C@H](C)[C@H](N)C(=O)N[C@H](C(=O)N[C@H](CCCNC(=N)N)C(=O)N[C@@H](CCCNC(=N)N)C(=O)N[C@@H](Cc1c[nH]cn1)C(=O)N[C@H](C(=O)N[C@H](C(=O)N[C@H](C(=O)N[C@H](C(=O)N[C@H](CCCNC(=N)N)C(=O)N[C@@H](CCCNC(=N)N)C(=O)N[C@@H](Cc1c[nH]cn1)C(=O)N[C@H](C(=O)N[C@H](C(N)=O)[C@@H](C)CC)[C@@H](C)CC)[C@@H](C)CC)[C@@H](C)CC)[C@@H](C)CC)[C@@H](C)CC)[C@@H](C)CC	16 (≈ 29.1 µg/mL)	32 (≈ 58.3 µg/mL)	64 (≈ 117 µg/mL)	8 (≈ 14.6 µg/mL)	64 (≈ 117 µg/mL)	2 (≈ 3.64 µg/mL)	32 (≈ 58.3 µg/mL)	16 (≈ 29.1 µg/mL)	32 (≈ 58.3 µg/mL)	64 (≈ 117 µg/mL)	32 (≈ 58.3 µg/mL)	32 (≈ 58.3 µg/mL)	Stable	> 64	1.84	32	Unstable	64	Stable	> 64	Stability [19]: Stable; MIC95 (Candida albicans [20]): 64 µM; Stability [21]: Stable; HC50 at 1 h [22]: > 512 µM; MIC95 (Candida albicans [23]): 64 µM; Stability [24]: Stable; Stability [25]: Stable; MIC95 (Candida albicans [26]): 32 µM
CC(C)[C@H](N)C(=O)N[C@H](C(=O)N[C@H](CCCNC(=N)N)C(=O)N[C@@H](CCCNC(=N)N)C(=O)N[C@@H](Cc1c[nH]cn1)C(=O)N[C@H](C(=O)N[C@H](C(=O)N[C@H](C(=O)N[C@H](C(=O)N[C@H](CCCNC(=N)N)C(=O)N[C@@H](CCCNC(=N)N)C(=O)N[C@@H](Cc1c[nH]cn1)C(=O)N[C@H](C(=O)N[C@H](C(=O)N[C@H](C(=O)N[C@H](C(=O)N[C@H](CCCNC(=N)N)C(=O)N[C@@H](CCCNC(=N)N)C(=O)N[C@@H](Cc1c[nH]cn1)C(=O)N[C@H](C(=O)N[C@H](C(=O)N[C@H](C(=O)N[C@H](C(=O)N[C@H](CCCNC(=N)N)C(=O)N[C@@H](CCCNC(=N)N)C(=O)N[C@@H](Cc1c[nH]cn1)C(=O)N[C@H](C(=O)N[C@H](C(N)=O)C(C)C)C(C)C)C(C)C)C(C)C)C(C)C)C(C)C)C(C)C)C(C)C)C(C)C)C(C)C)C(C)C)C(C)C)C(C)C)C(C)C)C(C)C	8 (≈ 27.2 µg/mL)	8 (≈ 27.2 µg/mL)	4 (≈ 13.6 µg/mL)	8 (≈ 27.2 µg/mL)	8 (≈ 27.2 µg/mL)	4 (≈ 13.6 µg/mL)	4 (≈ 13.6 µg/mL)	8 (≈ 27.2 µg/mL)	8 (≈ 27.2 µg/mL)	4 (≈ 13.6 µg/mL)	8 (≈ 27.2 µg/mL)	8 (≈ 27.2 µg/mL)	Stable	32	21.7	8	Unstable	16	Stable	64	Activity (HEK293): Toxic; Activity [27]: Toxic; Stability [19]: Stable; MIC95 (Candida albicans [20]): 16 µM; Stability [21]: Stable; HC50 at 1 h [22]: > 512 µM; MIC95 (Candida albicans [23]): 32 µM; Stability [24]: Stable; Stability [25]: Stable; MIC95 (Candida albicans [26]): 16 µM
